According to publication PMC12406685, “Thiazole substitution of a labile amide bond—a new option toward antiplasmodial pantothenamide-mimics” (Antimicrobial Agents and Chemotherapy, 2025):

How the values were obtained:
[1] = tested on: human foreskin fibroblasts (HFF); assay: In vitro HFF proliferation assay (Incucyte confluency); format: cell-based; conditions: 200 µM compound, DMEM with 16.8 µM pantothenate, 96 h; mean ± range/2 of two experiments
Method: (§1) HFF cells were maintained in vitro in DMEM supplemented with 10% (vol/vol) newborn calf serum, 50 units/mL penicillin, 50 µg/mL streptomycin, 10 µg/mL gentamicin, 0.2 mM L-glutamine, and 0.25 µg/mL amphotericin B, as previously described ([99]). HepG2 cells were maintained in RPMI-1640 medium (Thermo Fisher Scientific, catalogue number 72400120) supplemented with 10% (vol/vol) fetal bovine serum, 50 units/mL penicillin, and 50 µg/mL streptomycin.
In vitro HFF proliferation assays were performed as previously described by Howieson et al. ([32]), with modifications. Confluent HFF cells (in a 75 cm^2 flask) were harvested by treatment with 1 × trypsin–EDTA (0.25% [wt/vol] trypsin +0.2 g/L EDTA) and diluted in 21 mL of DMEM supplemented with 10% [vol/vol] newborn calf serum ([32]). Assays were set up in 96-well microtiter plates in a similar way to that described for the antiplasmodial activity assay. Cycloheximide (10 µM) was used as a non-proliferation control, and 0.1% (vol/vol) DMSO served as a 100% proliferation control. The plates were incubated at 37°C in a CO2 incubator for 96 h, and the Incucyte Live-Cell Analysis System (Essen BioScience) was used to capture cellular changes and assess cell growth in each well over time. Each well was scanned to capture bright field images, and confluency was assessed at the end of the 96 h incubation, which was then used to evaluate the effect of each compound on the proliferation of HFF cells by comparing it to the 100% proliferation control. The bottom of the curve was constrained to 0 when fitting for HFF proliferation assays using GraphPad Prism.

[2] = tested on: human hepatoblastoma cells (HepG2); assay: In vitro HepG2 proliferation assay (Incucyte confluency); format: cell-based; conditions: for Proliferation (%) of HepG2 with 200 µM Cpd and 1 µM Pan: 200 µM compound, 72 h, mean ± range/2 of two experiments; for Proliferation (%) of HepG2 with 200 µM Cpd and 1 µM Pan / Effect on HepG2 cells, in words: RPMI-1640 with 1 µM pantothenate
Method: as §1
In vitro HepG2 proliferation assays were performed similarly to the HFF proliferation assays with modifications. Confluent HepG2 cells were harvested by treatment with 1 × trypsin–EDTA and diluted in RPMI-1640 supplemented with 10% (vol/vol) fetal bovine serum. Assays were set up in 96-well microtiter plates with 20,000 cells per well. Puromycin (10 µM) was used as a non-proliferation control, and 0.1% (vol/vol) DMSO served as a 100% proliferation control. The plates were incubated at 37°C in a CO2 incubator for 72 h, and the Incucyte Live-Cell Analysis System (Essen BioScience) was used to capture cellular changes and assess cell growth in each well over time as described above for the HFF proliferation assays. The bottom of the curve was constrained to 0 when fitting for HepG2 proliferation assays using GraphPad Prism.

PfPanK = PfPanK (Plasmodium falciparum, UniProt Q8IL92+Q8ILP4); assay: [14C]pantothenate phosphorylation assay in P. falciparum lysates (Somogyi reagent); format: biochemical; conditions: for inhibition at 2 µM: read-out: Inhibition of pantothenate phosphorylation
Sequence of PfPanK (Q8ILP4 entry or part of it): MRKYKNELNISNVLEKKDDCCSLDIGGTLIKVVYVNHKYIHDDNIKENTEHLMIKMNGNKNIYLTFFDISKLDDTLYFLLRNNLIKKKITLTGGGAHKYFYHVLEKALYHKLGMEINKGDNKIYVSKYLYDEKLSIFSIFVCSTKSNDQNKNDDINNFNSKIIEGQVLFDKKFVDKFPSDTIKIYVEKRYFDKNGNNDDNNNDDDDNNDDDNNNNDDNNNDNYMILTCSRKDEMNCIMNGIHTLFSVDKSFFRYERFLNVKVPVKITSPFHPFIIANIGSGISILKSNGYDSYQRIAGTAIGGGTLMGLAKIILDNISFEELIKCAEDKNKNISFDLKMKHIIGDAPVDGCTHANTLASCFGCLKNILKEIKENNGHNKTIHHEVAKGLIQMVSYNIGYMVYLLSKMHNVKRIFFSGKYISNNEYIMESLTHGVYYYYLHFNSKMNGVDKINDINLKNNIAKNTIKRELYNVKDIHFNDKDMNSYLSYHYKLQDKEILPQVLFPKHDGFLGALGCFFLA
Sequence of PfPanK (Q8IL92 entry or part of it): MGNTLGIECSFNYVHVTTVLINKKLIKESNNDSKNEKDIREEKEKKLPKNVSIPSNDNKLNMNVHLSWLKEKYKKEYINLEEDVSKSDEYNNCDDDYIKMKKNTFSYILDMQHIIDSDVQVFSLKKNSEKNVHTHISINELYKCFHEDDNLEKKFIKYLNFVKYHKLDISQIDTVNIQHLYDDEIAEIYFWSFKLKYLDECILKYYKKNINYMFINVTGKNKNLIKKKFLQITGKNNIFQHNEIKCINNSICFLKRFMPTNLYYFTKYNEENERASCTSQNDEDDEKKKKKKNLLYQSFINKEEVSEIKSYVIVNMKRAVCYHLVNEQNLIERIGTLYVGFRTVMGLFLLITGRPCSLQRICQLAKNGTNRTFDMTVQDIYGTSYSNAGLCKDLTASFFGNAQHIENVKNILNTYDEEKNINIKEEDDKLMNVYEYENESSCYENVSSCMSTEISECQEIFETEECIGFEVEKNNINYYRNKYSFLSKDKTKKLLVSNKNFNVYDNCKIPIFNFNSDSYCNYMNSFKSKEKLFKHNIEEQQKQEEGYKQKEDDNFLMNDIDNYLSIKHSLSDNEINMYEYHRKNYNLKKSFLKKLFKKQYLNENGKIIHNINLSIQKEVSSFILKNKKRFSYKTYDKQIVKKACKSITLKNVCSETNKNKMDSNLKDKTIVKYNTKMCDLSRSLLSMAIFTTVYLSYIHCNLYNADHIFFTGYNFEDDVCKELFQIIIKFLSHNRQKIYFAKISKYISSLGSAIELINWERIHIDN
Method: Parasite lysates were prepared from saponin-isolated mature trophozoite-stage parasites as described by Saliba et al. ([14]), with modifications. Briefly, a culture with predominantly trophozoite stage parasites was thoroughly mixed with saponin (0.05% [wt/vol] final concentration) and centrifuged at 2,000 × g for 8 min at 4°C. The pelleted parasites were then transferred to a 1.5 mL tube and washed three times (16,000 × g, 1 min each time) with cold malaria saline (125 mM NaCl, 5 mM KCl, 25 mM HEPES, 20 mM glucose, 1 mM MgCl2, pH 7.1). Subsequently, washed saponin-isolated parasites were suspended in 1 mL of 10 mM Tris/Cl, pH 7.4, followed by trituration (10 times) through a SafetyGlide injection needle (25-gauge). The lysates were then centrifuged at 16,000 × g for 30 min at 4°C, and the supernatant was transferred to a new tube. The concentration of the lysates was then determined using the Bradford reagent.
Phosphorylation of [^14C]pantothenate was determined using a combination of zinc sulphate (ZnSO4) and barium hydroxide (Ba(OH)2) (Somogyi reagent) as previously described ([78]). In the 125 min time course, each reaction (650 µL) contained a final concentration of 50 mM Tris-Cl (pH 7.4), 5 mM ATP, 5 mM MgCl2, 2 µM (0.1 µCi/mL) [^14C]pantothenate, and 60 µg of total parasite lysate. The compounds were added at their 10× antiplasmodial IC50 values or at various concentrations to generate dose–response curves. Mixtures were incubated at 37°C throughout the experiment, and reactions were initiated by the addition of the lysates. A reaction with identical components to the test reactions but lacking the parasite lysate was prepared to serve as a no-phosphorylation negative control, and a reaction with DMSO vehicle control (0.2% vol/vol) served as a positive control. At pre-determined time points, 50 µL of the reaction mixture was transferred in triplicate to wells of a 96-well filter plate with 0.2 µm hydrophilic polyvinylidene fluoride (PVDF) membrane filter (Corning), which had been pre-loaded with 50 µL of 150 mM Ba(OH)2. The reaction mixtures were thoroughly mixed with the Ba(OH)2 in the wells to precipitate the enzyme and terminate the phosphorylation reaction. After all reactions had been terminated, phosphorylated compounds in each well were precipitated by the addition of 50 µL of 150 mM ZnSO4 to generate the Somogyi reagent. The plate was then washed twice with deionized H2O and once with 95% (vol/vol) ethanol using a vacuum manifold to remove the non-phosphorylated [^14C]pantothenate and was subsequently dried overnight at 37°C in a non-humidified incubator. The following day, 30 µL of Microscint-O (PerkinElmer) was added to each well, and the plate was sealed on the top and bottom with TopSeal-A Plus sealing film (PerkinElmer). A Packard Microplate Scintillation and Luminescence Counter was used to measure the radioactivity in each well immediately after the plate had been sealed. To determine the total radioactivity in each phosphorylation assay, 50 µL of each reaction mixture was added to the wells of an OptiPlate-96 microplate (PerkinElmer) in triplicate and was then thoroughly mixed with 150 µL of Microscint-40 (PerkinElmer), and the radioactivity was measured in the same manner. Phosphorylation of [^14C]pantothenate, calculated as a percentage of the radioactivity measured in the test wells relative to the total radioactivity in the phosphorylation assay, was then plotted against the reaction time. Each data set was analyzed by linear regression, from which the phosphorylation rate of each reaction was then determined and expressed as a percentage of the phosphorylation rate of the DMSO-positive control reaction.

Row | SMILES | Proliferation (%) of HFF with 200 µM Cpd and 16.8 µM Pan [1] [%] | Proliferation (%) of HepG2 with 200 µM Cpd and 1 µM Pan [2] [%] | Effect on HepG2 cells, in words ([2]; 200 µM) | inhibition at 2 µM (PfPanK) [%] | inhibition at 200 µM ([2]; Homo sapiens, HepG2, 200 µM) [%] | Fold by which IC50 at inhibiting pantothenate phosphorylation is higher than Km for pantothenate of PfPanK (PfPanK; relative to reported Km 270 ± 95 nM)
1 | CCCCc1csc(CNC(=O)[C@H](O)C(C)(C)CO)n1 [Compound 1a] | 100 ± 1 | 71 ± 11 | some low-level toxicity | > 90 | – | –
2 | CCCCCc1csc(CNC(=O)[C@H](O)C(C)(C)CO)n1 [Compound 1c] | 97 ± 4 | 62 ± 7 | some low-level toxicity | > 90 | – | –
3 | CC(C)(CO)[C@@H](O)C(=O)NCc1nc(CCc2ccccc2)cs1 [Compound 1e] | 101 ± 2 | 55 ± 1 | some low-level toxicity | > 90 | ~50 | –
4 | CC(C)(CO)[C@@H](O)C(=O)NCc1csc(Cc2ccccc2)n1 [Compound 2c] | 101 ± 2 | 93 ± 2 | completely inactive | > 90 | – | –
5 | CC(C)(CO)[C@@H](O)C(=O)NCc1csc(-c2ccccc2)n1 [Compound 2e] | 100 ± 1 | 91 ± 4 | completely inactive | ~80 | – | approximately 2.1 fold
6 | CC(C)(CO)[C@@H](O)C(=O)NCc1cnc(-c2ccccc2)s1 [Compound 3f] | 100 ± 1 | 89 ± 2 | completely inactive | > 90 | – | –
